# Assay: recombinant barcode read abundance after kanamycin selection (control-corrected) (log10(CPM+1)); higher = more efficient recombination; sequences stand for … in AGTGCAGAGAAAATCGGCCAGTTTTCTCTGCCTGCAGTCCGCATGCCGT…AGATTTATGCAGCGGACTGCCTTTCTCCCAAAGTGATAAACCGGACAGTATCATGGACCGGTTTTCCCGGTAATCCGTATTTGCAAGGTTGGTTTCACT; site = the 11-nt target
# In short: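 This pooled E. coli screen matched targets with IS621 bridge RNA target-binding loops. Plating was done in duplicate on chloramphenicol/ampicillin LB agar as a control and on chloramphenicol/ampicillin/kanamycin plus 0.1 mM IPTG. Recombination efficiency reflects barcode counts at recombinant junctions as counts per million, averaged and control-corrected. The figures are log10(CPM+1).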
# 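Also: IS621 recombinase and bridge RNA in Escherichia coli cells.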
row,Sequence,recombinant barcode read abundance (log10)
1,CCGCTTACTTGGGTTCTAACCTGTTGCCT (site CCGCTCGCTAG),0.0115
2,CCGCTTACTTGGGTTCTAACCTGTTGCCT (site CCGCTTACTAG),0.0232
3,CCGGACCCTTGGGTTCTAACCTGTTGCCT (site CCGGACCCTAG),1.88
4,CCGGACCCTTGGGTTCTAACCTGTTGCCT (site GCGGACGCTAG),0.232
5,CCGGAGCCTTGGGTTCTAACCTGTTGCCT (site CCGAAGCCTAG),1.42
6,CCGGAGCCTTGGGTTCTAACCTGTTGCCT (site CCGCAGCCTAG),0.271
7,CCGGAGCCTTGGGTTCTAACCTGTTGCCT (site CCGGAGCCTAG),2.41
8,CCGGAGCCTTGGGTTCTAACCTGTTGCCT (site CCGTAGCCTAG),0.413
9,CCGGGGTCTTGGGTTCTAACCTGTTGCCT (site ACGGGGTCTAG),0.789
10,CCGGGGTCTTGGGTTCTAACCTGTTGCCT (site CCGGGGTCTAG),1.76
11,CCGGGGTCTTGGGTTCTAACCTGTTGCCT (site GCGGGGTCTAG),0.0665
12,CCGGGGTCTTGGGTTCTAACCTGTTGCCT (site TCGGGGTCTAG),0.0922
13,CCGGGTTCTTGGGTTCTAACCTGTTGCCT (site CAGGGTTCTAG),0.145
14,CCGGGTTCTTGGGTTCTAACCTGTTGCCT (site CCGGGTTCTAG),1.79
15,CCGGGTTCTTGGGTTCTAACCTGTTGCCT (site CGGGGTTCTAG),0.16
16,CCGGGTTCTTGGGTTCTAACCTGTTGCCT (site CTGGGTTCTAG),0.154
17,CCGGTCCCTTGGGTTCTAACCTGTTGCAG (site CCGGTCCCTCT),2.07
18,CCGGTCCCTTGGGTTCTAACCTGTTGCAG (site GGACAGTCTAC),0.307
19,CCGTAAACTTGGGTTCTAACCTGTTGCCT (site CCGTAAACTAG),0.35
20,CCGTAAACTTGGGTTCTAACCTGTTGCCT (site CCGTAACCTAG),0.0417
21,CCGTAAACTTGGGTTCTAACCTGTTGCCT (site CCGTAAGCTAG),0.418
22,CCGTAAACTTGGGTTCTAACCTGTTGCCT (site CCGTAATCTAG),0.0331

row,Sequence,recombinant barcode read abundance (log10)
1,CCGTAACCTTGGGTTCTAACCTGTTGCCT (site CCGTAAACTAG),0.149
2,CCGTAACCTTGGGTTCTAACCTGTTGCCT (site CCGTAACCTAG),1.57
3,CCGTAACCTTGGGTTCTAACCTGTTGCCT (site CCGTAAGCTAG),0.00896
4,CCGTAACCTTGGGTTCTAACCTGTTGCCT (site CCGTAATCTAG),0.237
5,CCGTAATCTTGGGTTCTAACCTGTTGCCT (site CCGTAAACTAG),0.0257
6,CCGTAATCTTGGGTTCTAACCTGTTGCCT (site CCGTAACCTAG),0.47
7,CCGTAATCTTGGGTTCTAACCTGTTGCCT (site CCGTAAGCTAG),0.211
8,CCGTAATCTTGGGTTCTAACCTGTTGCCT (site CCGTAATCTAG),0.308
9,CCGTAGCCTTGGGTTCTAACCTGTTGCCT (site CCGAAGCCTAG),0.129
10,CCGTAGCCTTGGGTTCTAACCTGTTGCCT (site CCGCAGCCTAG),0.288
11,CCGTAGCCTTGGGTTCTAACCTGTTGCCT (site CCGGAGCCTAG),0.162
12,CCGTAGCCTTGGGTTCTAACCTGTTGCCT (site CCGTAGCCTAG),1.03
13,CCGTAGTCTTGGGTTCTAACCTGTTGCCT (site CCGTACTCTAG),0.0425
14,CCGTAGTCTTGGGTTCTAACCTGTTGCCT (site CCGTAGTCTAG),0.899
15,CCGTCAACTTGGGTTCTAACCTGTTGCCT (site CCGTCAACTAG),0.226
16,CCGTCAACTTGGGTTCTAACCTGTTGCCT (site GTACTCTCTCT),0.0368
17,CCGTCATCTTGGGTTCTAACCTGTTGCCT (site CCGTCATCTAG),0.108
18,CCGTCATCTTGGGTTCTAACCTGTTGCCT (site CCGTCGTCTAG),0.234
19,CCGTGCCCTTGGGTTCTAACCTGTTGCCT (site CCGTGCCCTAG),0.676
20,CCGTGCCCTTGGGTTCTAACCTGTTGCCT (site GCGTGCCCTAG),0.0432
21,CCGTGGCCTTGGGTTCTAACCTGTTGCTT (site CCGTGGACTAG),0.0169
22,CCGTGGCCTTGGGTTCTAACCTGTTGCTT (site CCGTGGCCTAA),0.176

row,Sequence,recombinant barcode read abundance (log10)
1,CCGTGTCCTTGGGTTCTAACCTGTTGCCG (site CCGTGTCCTCG),1.32
2,CCGTGTCCTTGGGTTCTAACCTGTTGCCG (site GCGTGTCCTTG),0
3,CCGTTATCTTGGGTTCTAACCTGTTGCCT (site CCGATATCTAG),0.0227
4,CCGTTATCTTGGGTTCTAACCTGTTGCCT (site CCGCTATCTAG),0
5,CCGTTATCTTGGGTTCTAACCTGTTGCCT (site CCGGTATCTAG),0.0837
6,CCGTTATCTTGGGTTCTAACCTGTTGCCT (site CCGTTATCTAG),0.0274
7,CCTAACGCTTGGGTTCTAACCTGTTGCCT (site CCTAACGCTAG),0.625
8,CCTAACGCTTGGGTTCTAACCTGTTGCCT (site CCTCGCGCTAG),0.0688
9,CCTAAGACTTGGGTTCTAACCTGTTGCCC (site CCTAAGACTAG),0.23
10,CCTAAGACTTGGGTTCTAACCTGTTGCCC (site CCTAAGACTCG),0.0665
11,CCTAAGACTTGGGTTCTAACCTGTTGCCC (site CCTAAGACTGG),0.16
12,CCTAAGACTTGGGTTCTAACCTGTTGCCC (site CCTAAGACTTG),0.0914
13,CCTAAGCCTTGGGTTCTAACCTGTTGCGT (site CCTAAACCTAC),1.23
14,CCTAAGCCTTGGGTTCTAACCTGTTGCGT (site CCTAACCCTAC),0.977
15,CCTAAGCCTTGGGTTCTAACCTGTTGCGT (site CCTAAGCCTAC),1.21
16,CCTAAGCCTTGGGTTCTAACCTGTTGCGT (site CCTAATCCTAC),0.161
17,CCTAAGCCTTGGGTTCTAACCTGTTGCTG (site CCTAAGCCTCA),0.473
18,CCTAAGCCTTGGGTTCTAACCTGTTGCTG (site TACCCTTCTAC),0.141
19,CCTAATACTTGGGTTCTAACCTGTTGCGT (site CCTAATACTAC),0.988
20,CCTAATACTTGGGTTCTAACCTGTTGCGT (site CCTTAGACTAC),0.0351
21,CCTAATCCTTGGGTTCTAACCTGTTGCGT (site CCTAAACCTAC),0.0528
22,CCTAATCCTTGGGTTCTAACCTGTTGCGT (site CCTAACCCTAC),0.295

# — the supplement of paper PMC11208160
